{"source": "patent US20060005464A1", "about": "“Alkyl ethanolamine and biocide combination for hydrocarbon based fuels” (priority 2004, published 2006)", "system": "Pseudomonas Aeruginosa (ATCC27853)", "test": "Microtiter plate growth of Pseudomonas Aeruginosa with amines and GROTAN", "type": "cell-based", "settings": "for growth of Pseudomonas Aeruginosa (Table 1 entry): pH 8.5, 24 hours", "key": {"[1]": {"settings": "amine 2000 ppm plus GROTAN 100 ppm"}, "[2]": {"settings": "amine 2000 ppm plus GROTAN 250 ppm"}, "[3]": {"settings": "amine 2000 ppm plus GROTAN 500 ppm"}, "[4]": {"settings": "amine 2000 ppm plus GROTAN 1000 ppm"}, "[5]": {"settings": "amine 2000 ppm plus GROTAN 2000 ppm"}, "[6]": {"settings": "amine 4000 ppm plus GROTAN 100 ppm"}, "[7]": {"settings": "amine 4000 ppm plus GROTAN 250 ppm"}, "[8]": {"settings": "amine 4000 ppm plus GROTAN 500 ppm"}, "[9]": {"settings": "amine 4000 ppm plus GROTAN 1000 ppm"}, "[10]": {"settings": "amine 4000 ppm plus GROTAN 2000 ppm"}}, "data": [{"smiles": "CCCCN(CCO)CCO", "note": "[BDEA, butyldiethanolamine]", "values": [{"measurement": "growth of Pseudomonas Aeruginosa (Table 1 entry)", "setting": "[1]", "value": 0.52}, {"measurement": "growth of Pseudomonas Aeruginosa (Table 1 entry)", "setting": "[2]", "value": 0.72}, {"measurement": "growth of Pseudomonas Aeruginosa (Table 1 entry)", "setting": "[3]", "value": 0.79}, {"measurement": "growth of Pseudomonas Aeruginosa (Table 1 entry)", "setting": "[4]", "value": 0.32}, {"measurement": "growth of Pseudomonas Aeruginosa (Table 1 entry)", "setting": "[5]", "value": 0.33}, {"measurement": "growth of Pseudomonas Aeruginosa (Table 1 entry)", "setting": "amine 2000 ppm, GROTAN 0 ppm", "value": 0.67}, {"measurement": "growth of Pseudomonas Aeruginosa (Table 1 entry)", "setting": "[6]", "value": 0.67}, {"measurement": "growth of Pseudomonas Aeruginosa (Table 1 entry)", "setting": "[7]", "value": 0.51}, {"measurement": "growth of Pseudomonas Aeruginosa (Table 1 entry)", "setting": "[8]", "value": 0.30}, {"measurement": "growth of Pseudomonas Aeruginosa (Table 1 entry)", "setting": "[9]", "value": 0.28}, {"measurement": "growth of Pseudomonas Aeruginosa (Table 1 entry)", "setting": "[10]", "value": 0.33}, {"measurement": "growth of Pseudomonas Aeruginosa (Table 1 entry)", "setting": "amine 4000 ppm, GROTAN 0 ppm", "value": 0.45}, {"measurement": "enhancement in the biocidal effect of GROTAN", "setting": "conclusion from Table 1", "value": "provide an enhancement in the biocidal effect of GROTAN®"}]}, {"smiles": "CC(C)(C)NCCO", "note": "[TBAE, tert-butylaminoethanol]", "values": [{"measurement": "growth of Pseudomonas Aeruginosa (Table 1 entry)", "setting": "[1]", "value": 0.72}, {"measurement": "growth of Pseudomonas Aeruginosa (Table 1 entry)", "setting": "[2]", "value": 0.69}, {"measurement": "growth of Pseudomonas Aeruginosa (Table 1 entry)", "setting": "[3]", "value": 0.83}, {"measurement": "growth of Pseudomonas Aeruginosa (Table 1 entry)", "setting": "[4]", "value": 0.30}, {"measurement": "growth of Pseudomonas Aeruginosa (Table 1 entry)", "setting": "[5]", "value": 0.35}, {"measurement": "growth of Pseudomonas Aeruginosa (Table 1 entry)", "setting": "amine 2000 ppm, GROTAN 0 ppm", "value": 0.67}, {"measurement": "growth of Pseudomonas Aeruginosa (Table 1 entry)", "setting": "[6]", "value": 0.58}, {"measurement": "growth of Pseudomonas Aeruginosa (Table 1 entry)", "setting": "[7]", "value": 0.59}, {"measurement": "growth of Pseudomonas Aeruginosa (Table 1 entry)", "setting": "[8]", "value": 0.34}, {"measurement": "growth of Pseudomonas Aeruginosa (Table 1 entry)", "setting": "[9]", "value": 0.28}, {"measurement": "growth of Pseudomonas Aeruginosa (Table 1 entry)", "setting": "[10]", "value": 0.36}, {"measurement": "growth of Pseudomonas Aeruginosa (Table 1 entry)", "setting": "amine 4000 ppm, GROTAN 0 ppm", "value": 0.55}]}]}
